Experimental findings from publication doi:10.1101/362830v1 (biorxiv, 2018) are described below.

Type in all cases: biochemical
Assay [1] addresses T1, ShHTL7 (Striga hermonthica, UniProt A0A0M3PNA2).
T1 sequence (A0A0M3PNA2 1-271): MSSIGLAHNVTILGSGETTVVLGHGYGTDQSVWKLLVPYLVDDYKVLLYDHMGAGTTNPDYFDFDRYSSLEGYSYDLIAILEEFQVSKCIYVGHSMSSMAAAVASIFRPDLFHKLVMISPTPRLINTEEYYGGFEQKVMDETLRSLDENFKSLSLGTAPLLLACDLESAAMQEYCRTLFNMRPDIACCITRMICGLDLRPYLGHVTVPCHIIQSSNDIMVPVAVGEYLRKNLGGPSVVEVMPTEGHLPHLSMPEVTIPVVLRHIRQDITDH
As to the kind of experiment: inhibition of YLG hydrolysis, fluorescence.

The target in assay [2] is T2, D14 (Oryza sativa, UniProt Q10QA5).
T2 sequence (Q10QA5 54-318): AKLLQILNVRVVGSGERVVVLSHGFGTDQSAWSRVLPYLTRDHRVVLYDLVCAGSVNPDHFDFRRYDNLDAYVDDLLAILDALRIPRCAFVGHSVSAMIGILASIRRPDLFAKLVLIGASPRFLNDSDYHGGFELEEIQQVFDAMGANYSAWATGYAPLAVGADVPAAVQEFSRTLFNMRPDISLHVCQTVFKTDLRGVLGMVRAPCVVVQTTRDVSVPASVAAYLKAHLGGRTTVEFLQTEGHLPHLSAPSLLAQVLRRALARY
Briefly: inhibition of YLG hydrolysis, fluorescence.

In assay [3] the target is T2, D14. As to the kind of experiment: fluorogenic hydrolysis, ex […] nm, em […] nm. As to conditions: read-out: Km^YLG; 100 mM PBS pH 7.3, 0.1% DMSO, 30 °C; no inhibitor.

Regarding `CC1=C[C@@H](O/C=C2/C(=O)O[C@@H]3c4ccccc4C[C@H]23)OC1=O` [GR24], the IC50 – broadly, the concentration that inhibits the measured activity by half – in assay [1] amounted to 150 nM; in assay [2], 5.8 µM.

For the molecule `CCOC(=O)c1ccccc1-c1c2ccc(=O)cc-2oc2cc(OC3C=C(C)C(=O)O3)ccc12` (centres unmarked) [Yoshimulactone Green], in assay [3], the Michaelis constant (Km) (usually the concentration of substrate that gives half-maximal velocity) worked out at 1840 nM.

For `O=C(N1CCc2ccccc21)n1ccnn1` [compound 26, indolin-1-yl(1H-1,2,3-triazol-1-yl)methanone], the IC50 in assay [2] was 1.8 µM. In other words, the single-digit micromolar range.

With `O=C(N1CCc2ccccc21)n1nccn1` [compound 26, indolin-1-yl(2H-1,2,3-triazol-2-yl)methanone], 7.9 µM corresponded to half-maximal inhibition in assay [2] (IC50).
